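96-well plates; 48 h exposure; 5 concentrations. Endpoints by linear interpolation between flanking doses. Not reached: highest tested concentration assigned. GI50: concentration for 50% inhibition of growth.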 Calls of active or inactive are those of the source. No stated cut-off is given here; in the data, active = GI50 up to about 1.1 µM and inactive = higher.
Assays:
Assay in all cases: inhibition of tumour cell growth, NCI panel, 48 h
A498 = tested on: A498
OVCAR-3 = tested on: OVCAR-3
RXF 393 = tested on: RXF 393
BT-549 = tested on: BT-549
T47D = tested on: T47D
ACHN = tested on: ACHN
LOX IMVI = tested on: LOX IMVI
SK-MEL-28 = tested on: SK-MEL-28
UACC-62 = tested on: UACC-62
Malme-3M = tested on: Malme-3M
HCC 2998 = tested on: HCC 2998
M14 = tested on: M14
HL-60 = tested on: HL-60
MDA-N = tested on: MDA-N
NCI-H23 = tested on: NCI-H23
786-0 = tested on: 786-0
UO-31 = tested on: UO-31
MOLT-4 = tested on: MOLT-4
Hs-578T = tested on: Hs-578T
SNB-19 = tested on: SNB-19
NCI-H226 = tested on: NCI-H226
OVCAR-8 = tested on: OVCAR-8
MCF7 = tested on: MCF7
CCRF-CEM = tested on: CCRF-CEM
COLO 205 = tested on: COLO 205
SW-620 = tested on: SW-620
U-251 = tested on: U-251
MDA-MB-435 = tested on: MDA-MB-435
NCI-H460 = tested on: NCI-H460
DU-145 = tested on: DU-145
SNB-75 = tested on: SNB-75
SF-268 = tested on: SF-268
HCT-116 = tested on: HCT-116
MDA-MB-231 = tested on: MDA-MB-231
A549 = tested on: A549
OVCAR-4 = tested on: OVCAR-4
PC-3 = tested on: PC-3
SK-OV-3 = tested on: SK-OV-3
HCT-15 = tested on: HCT-15
OVCAR-5 = tested on: OVCAR-5
SF-295 = tested on: SF-295
K562 = tested on: K562
EKVX = tested on: EKVX
SN12C = tested on: SN12C
HOP-62 = tested on: HOP-62
SK-MEL-5 = tested on: SK-MEL-5
TK-10 = tested on: TK-10
KM12 = tested on: KM12
IGROV-1 = tested on: IGROV-1
UACC-257 = tested on: UACC-257
HT-29 = tested on: HT-29
NCI/ADR-RES = tested on: NCI/ADR-RES
HOP-92 = tested on: HOP-92
CAKI-1 = tested on: CAKI-1
NCI-H522 = tested on: NCI-H522
SR = tested on: SR
SF-539 = tested on: SF-539
SK-MEL-2 = tested on: SK-MEL-2

Measured: GI50

CCN(CC)/C(Cl)=C(Cl)\C(=C1\Nc2ccc(OC)cc21)[N+](=O)[O-]
52.7 µM: HCT-15
inactive: A498 > 100 µM | OVCAR-3 13.7 µM | RXF 393 15.7 µM | BT-549 37.1 µM | T47D 24.6 µM | ACHN 98.2 µM | LOX IMVI 38.7 µM | SK-MEL-28 55.7 µM | UACC-62 88.5 µM | Malme-3M > 100 µM | HCC 2998 > 100 µM | M14 > 100 µM | HL-60 32.3 µM | MDA-N 50.4 µM | NCI-H23 56.6 µM | 786-0 47.9 µM | UO-31 95.1 µM | MOLT-4 23.1 µM | Hs-578T 78.7 µM | SNB-19 61 µM | NCI-H226 18.9 µM | OVCAR-8 63.4 µM | MCF7 54.8 µM | CCRF-CEM 20.1 µM | COLO 205 43.4 µM | SW-620 43 µM | U-251 37.5 µM | MDA-MB-435 37.2 µM | NCI-H460 31.1 µM | DU-145 37.8 µM | SNB-75 15.3 µM | SF-268 50.4 µM | HCT-116 44.6 µM | MDA-MB-231 45.5 µM | A549 58.9 µM | OVCAR-4 30.8 µM | PC-3 31.6 µM | SK-OV-3 75.5 µM | OVCAR-5 95.7 µM | SF-295 45.8 µM | K562 31.7 µM | EKVX 30.1 µM | SN12C > 100 µM | HOP-62 78.7 µM | SK-MEL-5 28.6 µM | TK-10 83.6 µM | KM12 69.5 µM | IGROV-1 88.1 µM | UACC-257 75.5 µM | HT-29 56.2 µM | NCI/ADR-RES 70.6 µM | HOP-92 > 100 µM | CAKI-1 59 µM | NCI-H522 20.2 µM | SR 16.6 µM

COC(c1ccc(C(C)(C)C)cc1)(c1ccc(C(C)(C)C)cc1)c1cc(C(O)(c2cc(C(OC)(c3ccc(C(C)(C)C)cc3)c3ccc(C(C)(C)C)cc3)c(C)cc2C)c2cc(C(OC)(c3ccc(C(C)(C)C)cc3)c3ccc(C(C)(C)C)cc3)c(C)cc2C)c(C)cc1C
> 100 µM: HCT-15
inactive: A498 > 100 µM | OVCAR-3 > 100 µM | RXF 393 > 100 µM | SF-539 > 100 µM | BT-549 > 100 µM | T47D > 100 µM | LOX IMVI > 100 µM | SK-MEL-28 > 100 µM | UACC-62 > 100 µM | Malme-3M > 100 µM | HCC 2998 > 100 µM | M14 > 100 µM | HL-60 > 100 µM | MDA-N > 100 µM | NCI-H23 > 100 µM | UO-31 > 100 µM | MOLT-4 > 100 µM | Hs-578T > 100 µM | NCI-H226 92.5 µM | OVCAR-8 > 100 µM | MCF7 > 100 µM | CCRF-CEM > 100 µM | COLO 205 > 100 µM | SW-620 > 100 µM | U-251 > 100 µM | MDA-MB-435 > 100 µM | NCI-H460 > 100 µM | DU-145 > 100 µM | SNB-75 28.3 µM | SF-268 > 100 µM | HCT-116 > 100 µM | MDA-MB-231 > 100 µM | A549 > 100 µM | OVCAR-4 > 100 µM | PC-3 > 100 µM | SK-OV-3 > 100 µM | OVCAR-5 > 100 µM | SF-295 > 100 µM | K562 > 100 µM | EKVX > 100 µM | HOP-62 > 100 µM | SK-MEL-5 > 100 µM | TK-10 > 100 µM | IGROV-1 > 100 µM | UACC-257 > 100 µM | HT-29 > 100 µM | NCI/ADR-RES > 100 µM | HOP-92 > 100 µM | CAKI-1 > 100 µM | SR > 100 µM | SK-MEL-2 > 100 µM
